ChEMBL document CHEMBL3885881, “DrugMatrix”
Values joined by “and” are separate entries in the source; they are usually repeats but may differ in a detail not shown here. Equal values may be shown once.

Species: Rattus norvegicus
Assay: DrugMatrix - Regimen: Daily Repeat
Type: toxicity, organism-based, Sprague-Dawley
Set-up: regimen Daily Repeat, gender Male, age 6-8 weeks
Details: in vivo, ip, route intraperitoneal, vehicle 100 % SALINE; for ABSOLUTE BASOPHIL / ABSOLUTE EOSINOPHIL / ABSOLUTE LYMPHOCYTE / ABSOLUTE MONOCYTE / ABSOLUTE SEGMENTED NEUTROPHIL / BASOPHIL / EOSINOPHIL / ERYTHROCYTE COUNT / HEMATOCRIT / HEMOGLOBIN / LEUKOCYTE COUNT / LYMPHOCYTE / MEAN CORPUSCULAR HEMOGLOBIN / MEAN CORPUSCULAR HEMOGLOBIN CONCENTRATION / MEAN CORPUSCULAR VOLUME / MONOCYTE / NEUTROPHIL / PLATELET COUNT: tissue Blood; for ALANINE AMINOTRANSFERASE / ALBUMIN / ALKALINE PHOSPHATASE / ASPARTATE AMINOTRANSFERASE / BLOOD UREA NITROGEN / CARBON DIOXIDE / CHLORIDE / CHOLESTEROL / CREATINE PHOSPHOKINASE / CREATININE / GLUCOSE / LACTATE DEHYDROGENASE / LIPASE / PHOSPHORUS / POTASSIUM / SODIUM / TOTAL BILIRUBIN / TOTAL PROTEIN / URIC ACID: tissue Plasma
[1] = 0 mg/kg, 120 h, dose level Control, time 5 day
[2] = 0 mg/kg, […], dose level Control, time 14 day
[3] = 0 mg/kg, […], dose level Control, time 28 day
[4] = 40 mg/kg, 120 h, dose level High, time 5 day
[5] = 40 mg/kg, […], dose level High, time 14 day
[6] = 40 mg/kg, […], dose level High, time 28 day

SMILES: CCN[C@@H]1C[C@H](N)[C@@H](O[C@H]2OC(CN)=CC[C@H]2N)[C@H](O)[C@H]1O[C@H]1OC[C@](C)(O)[C@H](NC)[C@H]1O [NETILMICIN]
- ABSOLUTE BASOPHIL [1]: 32 cells/µL
- ABSOLUTE EOSINOPHIL [1]: 110 cells/µL
- ABSOLUTE LYMPHOCYTE [1]: 6630 cells/µL
- ABSOLUTE MONOCYTE [1]: 140 cells/µL
- ABSOLUTE SEGMENTED NEUTROPHIL [1]: 1170 cells/µL
- BASOPHIL [1]: 0.38% and 0.35%
- EOSINOPHIL [1]: 1.28% and 0.62%
- ERYTHROCYTE COUNT [1]: 7.45 x10E6/uL and 7.26 x10E6/uL
- HEMATOCRIT [1]: 45.74% and 47.97%
- HEMOGLOBIN [1]: 14.72 G/DL and 15.38 G/DL
- LEUKOCYTE COUNT [1]: 8.11 x10E3/uL and 8.68 x10E3/uL
- LYMPHOCYTE [1]: 81.3% and 86.77%
- MEAN CORPUSCULAR HEMOGLOBIN [1]: 19.76 pg and 21.18 pg
- MEAN CORPUSCULAR HEMOGLOBIN CONCENTRATION [1]: 32.16 G/DL and 32.05 G/DL
- MEAN CORPUSCULAR VOLUME [1]: 61.38 fL and 66.15 fL
- MONOCYTE [1]: 1.76% and 1.57%
- NEUTROPHIL [1]: 14.9% and 9.53%
- PLATELET COUNT [1]: 1322.4 x10E3/uL and 1786 x10E3/uL
- ALANINE AMINOTRANSFERASE [1]: 25.8 u/L and 20.5 u/L
- ALBUMIN [1]: 3.64 G/DL and 4.35 G/DL
- ALKALINE PHOSPHATASE [1]: 233.6 u/L and 300 u/L
- ASPARTATE AMINOTRANSFERASE [1]: 81.4 u/L and 86.75 u/L
- BLOOD UREA NITROGEN [1]: 14.4 mg/dL and 17 mg/dL
- CARBON DIOXIDE [1]: 29 mmol/L
- CHLORIDE [1]: 105.6 MEQ/L and 106.25 MEQ/L
- CHOLESTEROL [1]: 69.2 mg/dL and 51.25 mg/dL
- CREATINE PHOSPHOKINASE [1]: 384.75 u/L
- CREATININE [1]: 0.56 mg/dL and 0.47 mg/dL
- GLUCOSE [1]: 125.4 mg/dL and 128.75 mg/dL
- LACTATE DEHYDROGENASE [1]: 105.4 u/L and 145 u/L
- LIPASE [1]: 22.4 u/L and 13.25 u/L
- PHOSPHORUS [1]: 11.48 mg/dL and 11.8 mg/dL
- POTASSIUM [1]: 5.52 MEQ/L and 6.58 MEQ/L
- SODIUM [1]: 147 MEQ/L and 151 MEQ/L
- TOTAL BILIRUBIN [1]: 0.2 mg/dL and 0.33 mg/dL
- TOTAL PROTEIN [1]: 6.1 G/DL and 6.53 G/DL
- URIC ACID [1]: 1.06 mg/dL and 1.95 mg/dL
- ABSOLUTE BASOPHIL [2]: 130 cells/µL
- ABSOLUTE EOSINOPHIL [2]: 140 cells/µL
- ABSOLUTE LYMPHOCYTE [2]: 13500 cells/µL
- ABSOLUTE MONOCYTE [2]: 400 cells/µL
- ABSOLUTE SEGMENTED NEUTROPHIL [2]: 2330 cells/µL
- HEMATOCRIT [2]: 45.98%
- ABSOLUTE BASOPHIL [3]: 91 cells/µL
- ABSOLUTE EOSINOPHIL [3]: 110 cells/µL
- ABSOLUTE LYMPHOCYTE [3]: 9910 cells/µL
- ABSOLUTE MONOCYTE [3]: 210 cells/µL
- ABSOLUTE SEGMENTED NEUTROPHIL [3]: 1560 cells/µL
- BASOPHIL [3]: 0.77%
- EOSINOPHIL [3]: 0.92%
- ERYTHROCYTE COUNT [3]: 8.21 x10E6/uL
- HEMATOCRIT [3]: 47.53%
- HEMOGLOBIN [3]: 15.65 G/DL
- LEUKOCYTE COUNT [3]: 11.91 x10E3/uL
- LYMPHOCYTE [3]: 83.34%
- MEAN CORPUSCULAR HEMOGLOBIN [3]: 19.07 pg
- MEAN CORPUSCULAR HEMOGLOBIN CONCENTRATION [3]: 32.93 G/DL
- MEAN CORPUSCULAR VOLUME [3]: 57.9 fL
- MONOCYTE [3]: 1.68%
- NEUTROPHIL [3]: 12.97%
- PLATELET COUNT [3]: 1323.8 x10E3/uL
- CARBON DIOXIDE [2]: 25 mmol/L
- ALANINE AMINOTRANSFERASE [3]: 30 u/L
- ALBUMIN [3]: 3.71 G/DL
- ALKALINE PHOSPHATASE [3]: 186.8 u/L
- ASPARTATE AMINOTRANSFERASE [3]: 78.2 u/L
- BLOOD UREA NITROGEN [3]: 14.2 mg/dL
- CHLORIDE [3]: 105.4 MEQ/L
- CHOLESTEROL [3]: 44.9 mg/dL
- CREATINE PHOSPHOKINASE [3]: 334.3 u/L
- CREATININE [3]: 0.6 mg/dL
- GLUCOSE [3]: 147.2 mg/dL
- LACTATE DEHYDROGENASE [3]: 123.1 u/L
- LIPASE [3]: 9.6 u/L
- PHOSPHORUS [3]: 10.01 mg/dL
- POTASSIUM [3]: 6.57 MEQ/L
- SODIUM [3]: 149.5 MEQ/L
- TOTAL BILIRUBIN [3]: 0.21 mg/dL
- TOTAL PROTEIN [3]: 6.66 G/DL
- URIC ACID [3]: 1.26 mg/dL
- ABSOLUTE BASOPHIL [4]: 100 cells/µL
- ABSOLUTE EOSINOPHIL [4]: 100 cells/µL
- ABSOLUTE LYMPHOCYTE [4]: 9410 cells/µL
- ABSOLUTE MONOCYTE [4]: 270 cells/µL
- ABSOLUTE SEGMENTED NEUTROPHIL [4]: 2070 cells/µL
- BASOPHIL [4]: 0.82% and 0.23%
- EOSINOPHIL [4]: 0.84% and 0.53%
- ERYTHROCYTE COUNT [4]: 7.28 x10E6/uL and 7.2 x10E6/uL
- HEMATOCRIT [4]: 44.78% and 47.4%
- HEMOGLOBIN [4]: 14.6 G/DL and 14.93 G/DL
- LEUKOCYTE COUNT [4]: 12 x10E3/uL and 6.78 x10E3/uL
- LYMPHOCYTE [4]: 78.86% and 87.63%
- MEAN CORPUSCULAR HEMOGLOBIN [4]: 20.02 pg and 20.77 pg
- MEAN CORPUSCULAR HEMOGLOBIN CONCENTRATION [4]: 32.56 G/DL and 31.5 G/DL
- MEAN CORPUSCULAR VOLUME [4]: 61.44 fL and 65.9 fL
- MONOCYTE [4]: 2.18% and 1.53%
- NEUTROPHIL [4]: 16.76% and 9.17%
- PLATELET COUNT [4]: 1295.4 x10E3/uL and 1697.67 x10E3/uL
- ALANINE AMINOTRANSFERASE [4]: 28.4 u/L and 20.25 u/L
- ALBUMIN [4]: 3.44 G/DL and 4.28 G/DL
- ALKALINE PHOSPHATASE [4]: 235.6 u/L and 305.25 u/L
- ASPARTATE AMINOTRANSFERASE [4]: 91.8 u/L and 87.25 u/L
- BLOOD UREA NITROGEN [4]: 12 mg/dL and 14.25 mg/dL
- CARBON DIOXIDE [4]: 24.75 mmol/L
- CHLORIDE [4]: 108.2 MEQ/L and 108.25 MEQ/L
- CHOLESTEROL [4]: 53.8 mg/dL and 53 mg/dL
- CREATINE PHOSPHOKINASE [4]: 194.6 u/L and 310.75 u/L
- CREATININE [4]: 0.5 mg/dL and 0.47 mg/dL
- GLUCOSE [4]: 137 mg/dL and 119.5 mg/dL
- LACTATE DEHYDROGENASE [4]: 83.75 u/L and 121.25 u/L
- LIPASE [4]: 16 u/L and 7 u/L
- PHOSPHORUS [4]: 10.04 mg/dL and 12.5 mg/dL
- POTASSIUM [4]: 6.52 MEQ/L and 5.8 MEQ/L
- SODIUM [4]: 151.2 MEQ/L and 152.75 MEQ/L
- TOTAL BILIRUBIN [4]: 0.12 mg/dL and 0.28 mg/dL
- TOTAL PROTEIN [4]: 5.86 G/DL and 6.35 G/DL
- URIC ACID [4]: 1.12 mg/dL and 2.02 mg/dL
- ABSOLUTE BASOPHIL [5]: 76 cells/µL
- ABSOLUTE EOSINOPHIL [5]: 100 cells/µL
- ABSOLUTE LYMPHOCYTE [5]: 7150 cells/µL
- ABSOLUTE MONOCYTE [5]: 160 cells/µL
- ABSOLUTE SEGMENTED NEUTROPHIL [5]: 980 cells/µL
- ABSOLUTE BASOPHIL [6]: 110 cells/µL
- ABSOLUTE EOSINOPHIL [6]: 110 cells/µL
- ABSOLUTE LYMPHOCYTE [6]: 11000 cells/µL
- ABSOLUTE MONOCYTE [6]: 220 cells/µL
- ABSOLUTE SEGMENTED NEUTROPHIL [6]: 1680 cells/µL
- BASOPHIL [6]: 0.84%
- EOSINOPHIL [6]: 0.81%
- ERYTHROCYTE COUNT [6]: 8.07 x10E6/uL
- HEMATOCRIT [6]: 45.66%
- HEMOGLOBIN [6]: 15.06 G/DL
- LEUKOCYTE COUNT [6]: 13.21 x10E3/uL
- LYMPHOCYTE [6]: 83.38%
- MEAN CORPUSCULAR HEMOGLOBIN [6]: 18.66 pg
- MEAN CORPUSCULAR HEMOGLOBIN CONCENTRATION [6]: 32.99 G/DL
- MEAN CORPUSCULAR VOLUME [6]: 56.56 fL
- MONOCYTE [6]: 1.71%
- NEUTROPHIL [6]: 12.78%
- PLATELET COUNT [6]: 1402.4 x10E3/uL
- CARBON DIOXIDE [5]: 27 mmol/L
- ALANINE AMINOTRANSFERASE [6]: 27.9 u/L
- ALBUMIN [6]: 3.58 G/DL
- ALKALINE PHOSPHATASE [6]: 144.2 u/L
- ASPARTATE AMINOTRANSFERASE [6]: 86.4 u/L
- BLOOD UREA NITROGEN [6]: 16.3 mg/dL
- CHLORIDE [6]: 108.5 MEQ/L
- CHOLESTEROL [6]: 59.4 mg/dL
- CREATINE PHOSPHOKINASE [6]: 139.4 u/L
- CREATININE [6]: 0.7 mg/dL
- GLUCOSE [6]: 120.4 mg/dL
- LACTATE DEHYDROGENASE [6]: 85.6 u/L
- LIPASE [6]: 22.9 u/L
- PHOSPHORUS [6]: 8.66 mg/dL
- POTASSIUM [6]: 5.83 MEQ/L
